Assay results published in article PMC9299836 (eLife, 2022).
Values joined by “and” are separate entries in the source; they are usually repeats but may differ in a detail not shown here. Equal values may be shown once.

How the values were obtained:
[1] = target: T1, mGluR2 (Mus musculus, UniProt Q14BI2); assay: Live-cell FRET, SNAP-m2 (VFT domain) inter-subunit sensor in HEK293T cells; conditions: for SNAP-m2 FRET response (PAM DRC) / SNAP-m2 FRET response (PAM DRC), Mean: Glutamate + 0.5μM JNJ-42153605; for SNAP-m2 FRET response (PAM DRC): individual cells, normalized to 1mM glutamate;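 on all read-outs here: apparent FRET efficiency from whole-membrane ROIs of single cells, corrected for donor bleed-through and background, ΔFRET as treatment minus pretreatment signal, recorded at room temperature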
[2] = target: mGluR2 (Mus musculus, UniProt Q14BI2, A548F); assay: Live-cell FRET, azi-CRD (cysteine-rich domain) sensor in HEK293T cells; conditions: for Mean normalized FRET response, azi-CRD PAM DRC: glutamate + 0.5μM JNJ-42153605, maximal response normalized to 1mM glutamate
[3] = target: mGluR2 (Mus musculus, UniProt Q14BI2, INS715F); assay: Live-cell FRET, azi-ECL2 (7TM domain, extracellular loop 2) sensor in HEK293T cells; conditions: for Mean normalized azi-ECL2 FRET response: glutamate + 0.5μM modulator, maximal response normalized to 1mM glutamate;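 on all read-outs here: Cy3/Cy5 click-labeled sensor, whole-membrane ROIs per cell, apparent FRET after bleed-through correction, ΔFRET as treatment minus pre-treatment signal, at room temperature, at least three biological replicates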
[4] = target: T1, mGluR2; assay: Functional calcium imaging, SNAP-mGluR2 (no FLAG-tag) with chimeric G protein Gqo5 in HEK293T cells; format: cell-based; set-up: Full length mGluR2 construct with an amber codon (TAG) mutation of amino acid A548 (azi-CRD) or N-terminal SNAP-tag (SNAP-mGluR2); host or cells: HEK293T; conditions: modulator alone; precluded analysis of glutamate potency and efficacy
[5] = 0.5μM JNJ-42153605, ([1 mM glutamate + modulator] - [1 mM glutamate]) × 100

Sequence of mGluR2 (Mus musculus, UniProt Q14BI2, INS715F) (Q14BI2 with tags, fused parts or gaps INS715F): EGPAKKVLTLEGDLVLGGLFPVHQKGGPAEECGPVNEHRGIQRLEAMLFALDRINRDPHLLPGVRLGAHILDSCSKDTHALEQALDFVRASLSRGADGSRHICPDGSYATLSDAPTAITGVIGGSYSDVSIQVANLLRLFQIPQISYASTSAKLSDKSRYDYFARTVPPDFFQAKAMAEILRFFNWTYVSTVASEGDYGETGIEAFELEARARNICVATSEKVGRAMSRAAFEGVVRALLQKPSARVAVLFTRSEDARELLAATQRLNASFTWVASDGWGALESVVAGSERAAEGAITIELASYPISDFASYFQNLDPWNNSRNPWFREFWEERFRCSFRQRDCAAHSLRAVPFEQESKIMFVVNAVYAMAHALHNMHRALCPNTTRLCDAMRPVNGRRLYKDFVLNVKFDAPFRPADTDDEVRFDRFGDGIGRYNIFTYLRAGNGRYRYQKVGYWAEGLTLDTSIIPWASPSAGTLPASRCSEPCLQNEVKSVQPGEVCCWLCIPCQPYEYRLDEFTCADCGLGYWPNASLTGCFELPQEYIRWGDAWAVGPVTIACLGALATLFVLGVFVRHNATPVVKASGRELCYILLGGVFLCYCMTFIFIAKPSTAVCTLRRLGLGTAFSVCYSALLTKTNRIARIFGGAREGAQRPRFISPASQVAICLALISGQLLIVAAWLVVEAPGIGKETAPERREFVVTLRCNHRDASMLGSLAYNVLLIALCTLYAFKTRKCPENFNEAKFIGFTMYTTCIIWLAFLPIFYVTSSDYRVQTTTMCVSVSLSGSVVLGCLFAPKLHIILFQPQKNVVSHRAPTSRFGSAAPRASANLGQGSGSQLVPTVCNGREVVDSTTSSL
T1 sequence (Q14BI2 19-872): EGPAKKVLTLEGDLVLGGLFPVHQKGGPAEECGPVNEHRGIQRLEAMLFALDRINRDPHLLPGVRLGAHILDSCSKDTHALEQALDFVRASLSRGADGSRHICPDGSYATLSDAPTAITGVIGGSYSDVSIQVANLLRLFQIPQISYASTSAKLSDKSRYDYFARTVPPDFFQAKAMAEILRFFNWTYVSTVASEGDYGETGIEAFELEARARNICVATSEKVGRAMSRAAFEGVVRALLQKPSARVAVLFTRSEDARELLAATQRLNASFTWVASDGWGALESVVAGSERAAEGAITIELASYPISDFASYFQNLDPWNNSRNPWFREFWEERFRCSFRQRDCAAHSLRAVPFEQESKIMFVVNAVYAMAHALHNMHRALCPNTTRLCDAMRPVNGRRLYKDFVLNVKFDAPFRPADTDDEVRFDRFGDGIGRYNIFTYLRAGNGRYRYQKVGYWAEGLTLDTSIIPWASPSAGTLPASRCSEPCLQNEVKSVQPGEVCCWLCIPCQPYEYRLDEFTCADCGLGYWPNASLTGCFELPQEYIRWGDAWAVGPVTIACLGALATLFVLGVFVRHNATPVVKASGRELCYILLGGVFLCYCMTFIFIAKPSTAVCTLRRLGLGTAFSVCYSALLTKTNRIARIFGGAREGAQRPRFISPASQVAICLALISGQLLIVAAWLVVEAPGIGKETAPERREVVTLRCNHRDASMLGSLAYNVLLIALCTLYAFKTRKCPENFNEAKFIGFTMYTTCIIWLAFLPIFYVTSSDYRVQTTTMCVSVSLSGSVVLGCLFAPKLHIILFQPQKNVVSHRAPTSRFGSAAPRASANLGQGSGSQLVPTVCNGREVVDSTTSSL
Sequence of mGluR2 (Mus musculus, UniProt Q14BI2, A548F) (Q14BI2 19-872 A548F): as the sequence (Q14BI2 19-872) above, with A530F counted along it

FC(F)(F)c1c(N2CCC(c3ccccc3)CC2)ccn2c(CC3CC3)nnc12 [JNJ-42153605, 3-cyclopropylmethyl-7-(4-phenylpiperidin-1-yl)-8-trifluoromethyl[1,2,4]triazolo[4,3-a]pyridine]
SNAP-m2 - ΔEfficacy, Mean ΔEfficacy [1, 5]: 1.081 | SNAP-m2 FRET response (PAM DRC) ([1]; log[Glutamate] (M) -3): -1.011 | SNAP-m2 FRET response (PAM DRC), Mean ([1]; log[Glutamate] (M) -3): -1.011 | SNAP-m2 FRET response (PAM DRC) ([1]; log[Glutamate] (M) -4.1549): -1.026 and -1.036 and -0.9975 and -0.9514 and -0.995 | SNAP-m2 FRET response (PAM DRC), Mean ([1]; log[Glutamate] (M) -4.1549): -1.001 | SNAP-m2 FRET response (PAM DRC) ([1]; log[Glutamate] (M) -4.52288): -1.0364 and -1.036 and -1.011 and -0.8324 and -0.8825 | SNAP-m2 FRET response (PAM DRC), Mean ([1]; log[Glutamate] (M) -4.52288): -0.9596 | SNAP-m2 FRET response (PAM DRC) ([1]; log[Glutamate] (M) -5): -1.011 (2×) and -0.9177 and -0.5203 and -0.5436 | SNAP-m2 FRET response (PAM DRC), Mean ([1]; log[Glutamate] (M) -5): -0.8006 | SNAP-m2 FRET response (PAM DRC) ([1]; log[Glutamate] (M) -5.39794): -0.9084 and -0.9097 and -0.7581 and -0.2676 and -0.3028 | SNAP-m2 FRET response (PAM DRC), Mean ([1]; log[Glutamate] (M) -5.39794): -0.6293 | SNAP-m2 FRET response (PAM DRC) ([1]; log[Glutamate] (M) -5.82391): -0.7293 and -0.6949 and -0.532 and -0.1338 and -0.1442 | SNAP-m2 FRET response (PAM DRC), Mean ([1]; log[Glutamate] (M) -5.82391): -0.4469 | SNAP-m2 FRET response (PAM DRC) ([1]; log[Glutamate] (M) -6): -0.07432 and -0.0721 | SNAP-m2 FRET response (PAM DRC), Mean ([1]; log[Glutamate] (M) -6): -0.07321 | SNAP-m2 FRET response (PAM DRC) ([1]; log[Glutamate] (M) -6.52288): -0.2853 and -0.2653 and -0.1596 and 0 and -0.02884 | SNAP-m2 FRET response (PAM DRC), Mean ([1]; log[Glutamate] (M) -6.52288): -0.1478 | SNAP-m2 FRET response (PAM DRC) ([1]; log[Glutamate] (M) -7): -0.1024 and -0.08845 and 0 (3×) | SNAP-m2 FRET response (PAM DRC), Mean ([1]; log[Glutamate] (M) -7): -0.03816 | SNAP-m2 FRET response (PAM DRC) ([1]; log[Glutamate] (M) -7.30103): -0.03839 and 0 (4×) | SNAP-m2 FRET response (PAM DRC), Mean ([1]; log[Glutamate] (M) -7.30103): -0.00768 | SNAP-m2 FRET response (PAM DRC) ([1]; log[Glutamate] (M) -7.69897): 0 | SNAP-m2 FRET response (PAM DRC), Mean ([1]; log[Glutamate] (M) -7.69897): 0 | Mean max response (normalized max ΔFRET) ([1]; SNAP-m2, 1 mM glutamate + 0.5 μM modulator, normalized to 1 mM glutamate): 1.01 | Mean ΔPotency ([1]; SNAP-m2, 0.5μM modulator, (([modulator + glutamate]EC50 – [glutamate] EC50)/[glutamate] EC50) × 100): -64.9475 | Mean ΔEfficacy ([1]; SNAP-m2, 0.5μM modulator, ([1 mM glutamate + modulator] - [1 mM glutamate]) × 100): 1.081 | Hill slope of glutamate titration ([1]; SNAP-m2 sensor, + 0.5 μM modulator): –0.95 | azi-CRD - ΔEfficacy, Mean ΔEfficacy [2, 5]: 43.306 | azi-CRD - ΔEfficacy, individual cell responses ([2]; 0.5μM JNJ-42153605, single cells): 82.2727 and 42.4779 and 50.5102 and 41.4773 and 23.5294 and 12.5265 and 26.2467 and 67.4074 | Hill slope of glutamate titration ([2]; azi-CRD sensor, + 0.5 μM modulator): 0.84 | Live-cell FRET max response normalized to 1mM glutamate ([2]; azi-CRD sensor, Glutamate + 0.5μM JNJ-42153605, individual values (N=8)): 1.235 and 1.125 and 1.262 and 1.674 and 1.823 and 1.425 and 1.5051 and 1.415 | Mean max response (normalized max ΔFRET) ([2]; azi-CRD, 1 mM glutamate + 0.5 μM modulator, normalized to 1 mM glutamate): 1.43 | Mean ΔPotency ([2]; azi-CRD, 0.5μM modulator, (([modulator + glutamate]EC50 – [glutamate] EC50)/[glutamate] EC50) × 100): -59.6016 | ΔPotency, individual cell ([2]; azi-CRD, 0.5μM modulator, calculated from individual cell responses): -88.5847 and -77.2559 and -86.9416 and -84.6067 and -90.4873 and -15.0698 and -44.7131 and -29.6276 and 9.8556 | Mean normalized FRET response, azi-CRD PAM DRC ([2]; log[Glutamate] (M) -3): 1.433 | Mean normalized FRET response, azi-CRD PAM DRC ([2]; log[Glutamate] (M) -4.1549): 1.38 | Mean normalized FRET response, azi-CRD PAM DRC ([2]; log[Glutamate] (M) -4.52288): 1.273 | Mean normalized FRET response, azi-CRD PAM DRC ([2]; log[Glutamate] (M) -5): 1.071 | Mean normalized FRET response, azi-CRD PAM DRC ([2]; log[Glutamate] (M) -5.39794): 0.8185 | Mean normalized FRET response, azi-CRD PAM DRC ([2]; log[Glutamate] (M) -5.82391): 0.5065 | Mean normalized FRET response, azi-CRD PAM DRC ([2]; log[Glutamate] (M) -6.52288): 0.2306 | Mean normalized FRET response, azi-CRD PAM DRC ([2]; log[Glutamate] (M) -7): 0.112 | Mean normalized FRET response, azi-CRD PAM DRC ([2]; log[Glutamate] (M) -7.30103): 0.06166 | Mean normalized FRET response, azi-CRD PAM DRC ([2]; log[Glutamate] (M) -7.69897): 0 | azi-ECL2 - ΔEfficacy, Mean ΔEfficacy [3, 5]: -1.362 | Mean ΔPotency ([3]; 0.5μM modulator, (([modulator + glutamate]EC50 – [glutamate] EC50)/[glutamate] EC50) × 100): -56.3563 | ΔPotency, individual cell responses ([3]; 0.5μM modulator, single cells, (([modulator + glutamate]EC50 – [glutamate] EC50)/[glutamate] EC50) × 100): -56.3361 and -69.1679 and -73.0287 and -52.3819 and -40.5992 and -58.985 and -50.7357 and -45.7659 and -53.2747 and -65.0568 and -56.2788 and -59.6269 and -60.7335 and -44.1256 and -58.5158 and -54.4905 and -58.9548 | ΔEfficacy, individual cell responses ([3]; 0.5μM modulator, single cells, ([1 mM glutamate + modulator] - [1 mM glutamate]) × 100): -2.941 and 0.7843 and -9.091 and 0.4875 and -2.828 and 1.987 and -3.4754 and -3.284 and -3.415 and -12.5737 and -5.278 and 16.4947 and 5.4247 | Change in glutamate efficacy by FRET signal at ECL2 ([3]; azi-ECL2, 0.5 μM modulator): no change in efficacy | Mean max response (normalized max ΔFRET) ([3]; azi-ECL2, 1 mM glutamate + 0.5 μM modulator, normalized to 1 mM glutamate): 0.99 | Hill slope of glutamate titration ([3]; azi-ECL2 sensor, + 0.5 μM modulator): 0.97 | Mean normalized azi-ECL2 FRET response ([3]; log[Glutamate] (M) -3): 0.9864 | Mean normalized azi-ECL2 FRET response ([3]; log[Glutamate] (M) -4.1549): 0.9409 | Mean normalized azi-ECL2 FRET response ([3]; log[Glutamate] (M) -4.52288): 0.8615 | Mean normalized azi-ECL2 FRET response ([3]; log[Glutamate] (M) -5): 0.7669 | Mean normalized azi-ECL2 FRET response ([3]; log[Glutamate] (M) -5.39794): 0.6334 | Mean normalized azi-ECL2 FRET response ([3]; log[Glutamate] (M) -5.82391): 0.3885 | Mean normalized azi-ECL2 FRET response ([3]; log[Glutamate] (M) -6.52288): 0.08595 | Mean normalized azi-ECL2 FRET response ([3]; log[Glutamate] (M) -7): 0.01271 | Mean normalized azi-ECL2 FRET response ([3]; log[Glutamate] (M) -7.30103): 0 | Mean normalized azi-ECL2 FRET response ([3]; log[Glutamate] (M) -7.69897): 0 | Effect of modulator itself on intracellular calcium flux [4]: Direct activation of mGluR2
